Measurements: publication PMC8597046, “Use of Mixture Dosing and Nonlinear Mixed Effect Modeling of Eight Environmental Contaminants in Rabbits to Improve Extrapolation Value of Toxicokinetic Data” (Environmental Health Perspectives, 2021)

What was measured:
[1] = rodents; ref Kudo and Kawashima 2003; cited from earlier work
[2] = TK assay, intravenous mixture dosing: serum concentrations and noncompartmental analysis (sparse data); conditions: female, rabbit, in vivo, iv; for AUC(0-inf) / Cmax / MRT / clearance / half-life / Vd: New Zealand white (INRA 1777 line); for Vd: IV mixture dosing, NCA, n=12; for concentration at 24.03 h: rabbit 1, 24.03 h; for concentration at 72 h: rabbit 4, 72.00 h; for concentration at 72.03 h: rabbit 5, 72.03 h; for concentration at 71.97 h: rabbit 6, 71.97 h; for concentration at 167.92 h: rabbit 8, 167.92 h; for concentration at 671.96 h: rabbit 10, 671.96 h; for concentration at 672 h: rabbit 11, 672.00 h; for concentration at 671.83 h: rabbit 12, 671.83 h
Procedure, shortened: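 Female New Zealand white rabbits received a compound mixture IV via ear-vein catheter; serum sampled sparsely (3 rabbits/time point) from 15 min to 28 d. Noncompartmental sparse-data analysis on mean profiles: linear-trapezoidal AUC, CL as dose/AUC0−inf, half-life from λZ, MRT and VSS.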

[3] = TK assay, oral mixture dosing: serum concentrations and noncompartmental analysis (sparse data); conditions: female, rabbit, in vivo, po; for concentration at 23.98 h: rabbit 15, 23.98 h; for concentration at 671.96 h: rabbit 23, 671.96 h; for concentration at 71.96 h: rabbit 18, 71.96 h; for concentration at 168.02 h: rabbit 19, 168.02 h
Procedure, shortened: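 Female New Zealand white rabbits (10-wk, 2.37±0.14kg) got the compound mixture IV via ear-vein catheter or orally into the mouth; serum sampled 15 min to 28 d, 3 (or 6 at 30 min) rabbits per time. Sparse-data noncompartmental analysis gave AUC (linear trapezoidal), CL or CL_F, half-life and F.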

[4] = New Zealand white, Serum concentration
[5] = New Zealand white, Serum concentration, rabbit 2, […]
[6] = New Zealand white, Serum concentration, rabbit 3, […]
[7] = New Zealand white, Serum concentration, rabbit 7, 168.00 h
[8] = New Zealand white, Serum concentration, rabbit 9, 168.00 h
[9] = New Zealand white (INRA 1777 line)
[10] = New Zealand white (INRA 1777 line), Serum concentration, oral, rabbit 13, […], MEHP after oral DEHP
[11] = New Zealand white (INRA 1777 line), Serum concentration, oral, rabbit 14, […], MEHP after oral DEHP
[12] = New Zealand white (INRA 1777 line), Serum concentration, oral, MEHP after oral DEHP
[13] = New Zealand white (INRA 1777 line), Serum concentration, rabbit 21, 168.00 h
[14] = New Zealand white (INRA 1777 line), Serum concentration, rabbit 22, 672.02 h
[15] = New Zealand white (INRA 1777 line), Serum concentration
[16] = New Zealand white (INRA 1777 line), Serum concentration, rabbit 24, 672.02 h
[17] = New Zealand white, Serum concentration, oral, rabbit 16, 72.00 h, MEHP after oral DEHP
[18] = New Zealand white, Serum concentration, oral, rabbit 17, 72.00 h, MEHP after oral DEHP
[19] = New Zealand white, Serum concentration, oral, MEHP after oral DEHP
[20] = New Zealand white, Serum concentration, rabbit 20, 168.00 h

O=C(O)C(F)(F)C(F)(F)C(F)(F)C(F)(F)C(F)(F)C(F)(F)C(F)(F)F [PFOA, perfluorooctanoic acid]
Intestinal absorption [1]: 93% | AUC(0-inf) [2]: 27.4 µM·h | Cmax [2]: 2330 nM | MRT [2]: 18.7 h | clearance [2]: 0.121 mL/min/kg | half-life [2]: 31.8 h | Vd ([2]; VSS): 0.135 L/kg | Vd ([2]; VZ): 0.332 L/kg | concentration at 0.3 h ([2]; New Zealand white, Serum concentration, rabbit 1, 0.30 h): 1870 nM | concentration at 4.38 h ([2]; New Zealand white, Serum concentration, rabbit 1, 4.38 h): 1070 nM | concentration at 24.03 h [2, 4]: 240 nM | concentration at 0.28 h ([2]; New Zealand white, Serum concentration, rabbit 2, 0.28 h): 2100 nM | concentration at 4.05 h ([2]; New Zealand white, Serum concentration, rabbit 2, 4.05 h): 1020 nM | concentration at 24 h [2, 5]: 160 nM | concentration at 0.35 h ([2]; New Zealand white, Serum concentration, rabbit 3, 0.35 h): 2330 nM | concentration at 4.05 h ([2]; New Zealand white, Serum concentration, rabbit 3, 4.05 h): 1450 nM | concentration at 24 h [2, 6]: 290 nM | concentration at 0.62 h ([2]; New Zealand white, Serum concentration, rabbit 4, 0.62 h): 1700 nM | concentration at 72 h [2, 4]: 60 nM | concentration at 0.75 h ([2]; New Zealand white, Serum concentration, rabbit 5, 0.75 h): 1860 nM | concentration at 72.03 h [2, 4]: 34 nM | concentration at 0.57 h ([2]; New Zealand white, Serum concentration, rabbit 6, 0.57 h): 1670 nM | concentration at 71.97 h [2, 4]: 31 nM | concentration at 11.98 h ([2]; New Zealand white, Serum concentration, rabbit 7, 11.98 h): 840 nM | concentration at 168 h [2, 7]: 5.3 nM | concentration at 12.02 h ([2]; New Zealand white, Serum concentration, rabbit 8, 12.02 h): 520 nM | concentration at 167.92 h [2, 4]: 4.3 nM | concentration at 11.97 h ([2]; New Zealand white, Serum concentration, rabbit 9, 11.97 h): 590 nM | concentration at 168 h [2, 8]: 3 nM | concentration at 671.96 h [2, 4]: < 0.24 nM | concentration at 672 h [2, 4]: < 0.24 nM | concentration at 671.83 h [2, 4]: < 0.24 nM | AUC(0-inf) [3, 9]: 169 µM·h | CL/F [3, 9]: 0.0953 mL/min/kg | Cmax [3, 9]: 9070 nM | MRT [3, 9]: 25.9 h | Tmax [3, 9]: 4.05 h | Vd/F [3, 9]: 0.64 L/kg | bioavailability [3, 9]: > 100% | half-life [3, 9]: 77.6 h | concentration at 4.3 h ([3]; New Zealand white (INRA 1777 line), Serum concentration, oral, rabbit 13, 4.30 h, MEHP after oral DEHP): 6040 nM | concentration at 24 h [3, 10]: 2510 nM | concentration at 0.37 h ([3]; New Zealand white (INRA 1777 line), Serum concentration, oral, rabbit 14, 0.37 h, MEHP after oral DEHP): 4790 nM | concentration at 4.17 h ([3]; New Zealand white (INRA 1777 line), Serum concentration, oral, rabbit 14, 4.17 h, MEHP after oral DEHP): 6700 nM | concentration at 24 h [3, 11]: 1530 nM | concentration at 4.05 h ([3]; New Zealand white (INRA 1777 line), Serum concentration, oral, rabbit 15, 4.05 h, MEHP after oral DEHP): 9070 nM | concentration at 23.98 h [3, 12]: 2340 nM | concentration at 12 h ([3]; New Zealand white (INRA 1777 line), Serum concentration, oral, rabbit 21, 12.00 h, MEHP after oral DEHP): 3940 nM | concentration at 168 h [3, 13]: 9.3 nM | concentration at 672.02 h [3, 14]: 0.5 nM | concentration at 671.96 h [3, 15]: 0.26 nM | concentration at 672.02 h [3, 16]: 0.49 nM | concentration at 0.55 h ([3]; New Zealand white, Serum concentration, oral, rabbit 16, 0.55 h, MEHP after oral DEHP): 2520 nM | concentration at 72 h [3, 17]: 110 nM | concentration at 0.53 h ([3]; New Zealand white, Serum concentration, oral, rabbit 17, 0.53 h, MEHP after oral DEHP): 2350 nM | concentration at 72 h [3, 18]: 230 nM | concentration at 0.55 h ([3]; New Zealand white, Serum concentration, oral, rabbit 18, 0.55 h, MEHP after oral DEHP): 4200 nM | concentration at 71.96 h [3, 19]: 78 nM | concentration at 12 h ([3]; New Zealand white, Serum concentration, oral, rabbit 19, 12.00 h, MEHP after oral DEHP): 4880 nM | concentration at 12 h ([3]; New Zealand white, Serum concentration, oral, rabbit 20, 12.00 h, MEHP after oral DEHP): 3200 nM | concentration at 168.02 h [3, 4]: 32 nM | concentration at 168 h [3, 20]: 5 nM

Cl[C@H]1[C@H](Cl)[C@@H](Cl)[C@H](Cl)[C@@H](Cl)[C@@H]1Cl [β-HCH, β-hexachlorocyclohexane]
AUC(0-inf) [2]: 26.7 µM·h | Cmax [2]: 320 nM | MRT [2]: 543 h | clearance [2]: 0.95 mL/min/kg | half-life [2]: 330 h | Vd ([2]; VSS): 30.9 L/kg | Vd ([2]; VZ): 27.1 L/kg | concentration at 24.03 h [2, 4]: 62 nM | concentration at 24 h [2, 5]: 50 nM | concentration at 24 h [2, 6]: 76 nM | concentration at 72 h [2, 4]: 36 nM | concentration at 72.03 h [2, 4]: 34 nM | concentration at 71.97 h [2, 4]: 29 nM | concentration at 168 h [2, 7]: 20 nM | concentration at 167.92 h [2, 4]: 18 nM | concentration at 168 h [2, 8]: 25 nM | concentration at 0.67 h ([2]; New Zealand white, Serum concentration, rabbit 10, 0.67 h): 320 nM | concentration at 671.96 h [2, 4]: 6.5 nM | concentration at 0.77 h ([2]; New Zealand white, Serum concentration, rabbit 11, 0.77 h): 250 nM | concentration at 672 h [2, 4]: 21 nM | concentration at 0.6 h ([2]; New Zealand white, Serum concentration, rabbit 12, 0.60 h): 270 nM | concentration at 671.83 h [2, 4]: 9.6 nM | AUC(0-inf) [3, 9]: 67.1 µM·h | CL/F [3, 9]: 1.73 mL/min/kg | Cmax [3, 9]: 297 nM | MRT [3, 9]: 369 h | Tmax [3, 9]: 24 h | Vd/F [3, 9]: 47 L/kg | bioavailability [3, 9]: 55% | half-life [3, 9]: 314 h | concentration at 24 h [3, 10]: 390 nM | concentration at 24 h [3, 11]: 200 nM | concentration at 23.98 h [3, 12]: 190 nM | concentration at 168 h [3, 13]: 99 nM | concentration at 0.57 h ([3]; New Zealand white (INRA 1777 line), Serum concentration, rabbit 22, 0.57 h): 29 nM | concentration at 672.02 h [3, 14]: 13 nM | concentration at 0.55 h ([3]; New Zealand white (INRA 1777 line), Serum concentration, rabbit 23, 0.55 h): 73 nM | concentration at 671.96 h [3, 15]: 30 nM | concentration at 0.55 h ([3]; New Zealand white (INRA 1777 line), Serum concentration, rabbit 24, 0.55 h): 250 nM | concentration at 672.02 h [3, 16]: 43 nM | concentration at 72 h [3, 17]: 94 nM | concentration at 72 h [3, 18]: 160 nM | concentration at 71.96 h [3, 19]: 180 nM | concentration at 168.02 h [3, 4]: 88 nM | concentration at 168 h [3, 20]: 89 nM
